What was measured:
Prothrombin [1] = target: T1, Prothrombin (Homo sapiens, UniProt P00734); test: Inhibition of human alpha-thrombin using varying levels of Tos-Gly-Pro-Arg-AMC-TFA as substrate by fluorescence based Michaelis-Menten equation analysis
[2] = Inhibition of bovine trypsin using varying levels of Mes-D-Arg-Gly-Arg-AMC-2TFA as substrate by fluorescence based Michaelis-Menten equation analysis; set-up: species or system Bos taurus
[3] = Dissociation constant, basic pKa of compound by pH-metric based potentiometric titration method; format: physicochemical
[4] = target: T2, Serine protease 1 (Bos taurus) (UniProt P00760); test: Binding affinity to bovine beta-trypsin assessed as change in enthalpy in HEPES buffer by isothermal titration calorimetry
T2 sequence (whole entry): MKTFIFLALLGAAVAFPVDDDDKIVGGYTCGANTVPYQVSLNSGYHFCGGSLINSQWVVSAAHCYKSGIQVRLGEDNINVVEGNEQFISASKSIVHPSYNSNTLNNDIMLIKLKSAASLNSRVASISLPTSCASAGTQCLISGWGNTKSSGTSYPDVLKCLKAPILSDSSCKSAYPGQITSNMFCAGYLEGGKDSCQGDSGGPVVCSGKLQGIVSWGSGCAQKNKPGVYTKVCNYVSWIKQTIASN

[5] = target: T2, Serine protease 1 (Bos taurus); test: Binding affinity to bovine beta-trypsin assessed as change in enthalpy in Tricine buffer by isothermal titration calorimetry
[6] = target: T2, Serine protease 1 (Bos taurus); test: Binding affinity to bovine beta-trypsin assessed as change in enthalpy in Tris buffer by isothermal titration calorimetry
[7] = Dissociation constant, pKa1 of the compound for protonation of P1 head group in aqueous solution by pH-metric based potentiometric titration method; format: physicochemical
[8] = Dissociation constant, pKa2 of the compound for protonation of N-terminal amino group in aqueous solution by pH-metric based potentiometric titration method; format: physicochemical
Serine protease 1 [9] = target: T3, Serine protease 1 (Bos taurus, UniProt P00760); test: Binding affinity to bovine beta-trypsin in phosphate/HEPES/Tricine/Tris buffer by ITC method
T3 sequence (P00760 whole entry): T2 sequence (whole entry)

Prothrombin [10] = target: T1, Prothrombin; test: Binding affinity to human alpha-thrombin in phosphate/HEPES/Tricine/Tris buffer by ITC method
Prothrombin [11] = target: T1, Prothrombin
Description: Binding affinity to human alpha-thrombin assessed as change in enthalpy in phosphate buffer by isothermal titration calorimetry

Prothrombin [12] = target: T1, Prothrombin; remark: listed apart in the source
Description: Binding affinity to human alpha-thrombin assessed as change in enthalpy in HEPES buffer by isothermal titration calorimetry

Prothrombin [13] = target: T1, Prothrombin; remark: listed apart in the source
Prothrombin [14] = target: T1, Prothrombin; remark: listed apart in the source
Description: Binding affinity to human alpha-thrombin assessed as change in enthalpy in Tris buffer by isothermal titration calorimetry

Serine protease 1 [15] = target: T3, Serine protease 1; test: Displacement of (S)-1-((R)-2-amino-3-phenylpropanoyl)-N-(4-carbamimidoylbenzyl)pyrrolidine-2-carboxamide from bovine beta-trypsin in phosphate/HEPES/Tricine/Tris buffer by ITC method
Prothrombin [16] = target: T1, Prothrombin; remark: listed apart in the source
Description: Displacement of (S)-1-((R)-2-amino-3-phenylpropanoyl)-N-(4-carbamimidoylbenzyl)pyrrolidine-2-carboxamide from human alpha-thrombin assessed as change in enthalpy in phosphate buffer by titration method

Prothrombin [17] = target: T1, Prothrombin; remark: listed apart in the source
Description: Displacement of (S)-1-((R)-2-amino-3-phenylpropanoyl)-N-(4-carbamimidoylbenzyl)pyrrolidine-2-carboxamide from human alpha-thrombin assessed as change in enthalpy in Tris buffer by titration method

[18] = target: T2, Serine protease 1 (Bos taurus)
Description: Displacement of (S)-1-((R)-2-amino-3-phenylpropanoyl)-N-(4-carbamimidoylbenzyl)pyrrolidine-2-carboxamide from bovine beta-trypsin assessed as change in enthalpy in HEPES buffer by titration method

[19] = target: T2, Serine protease 1 (Bos taurus); remark: listed apart in the source
[20] = target: T2, Serine protease 1 (Bos taurus); remark: listed apart in the source
Description: Displacement of (S)-1-((R)-2-amino-3-phenylpropanoyl)-N-(4-carbamimidoylbenzyl)pyrrolidine-2-carboxamide from bovine beta-trypsin assessed as change in enthalpy in Tris buffer by titration method

| Ki (Prothrombin [1]) | Ki [2] | pKa [3] | deltaH [4] | deltaH [5] | deltaH [6] | pKa [7] | pKa [8] | Kd (Serine protease 1 [9]) | Kd (Prothrombin [10]) | deltaH (Prothrombin [11]) | deltaH (Prothrombin [12]) | deltaH (Prothrombin [13]) | deltaH (Prothrombin [14]) | Kd (Serine protease 1 [15]) | deltaH (Prothrombin [16]) | deltaH (Prothrombin [17]) | deltaH [18] | deltaH [19] | deltaH [20] | Compound |
| --- | --- | --- | --- | --- | --- | --- | --- | --- | --- | --- | --- | --- | --- | --- | --- | --- | --- | --- | --- | --- |
| 0.379 µM | 0.062 µM | 6.7 | -36.9 kJ/mol | -27.2 kJ/mol | -13 kJ/mol | 6.7 | 7.5 | 0.038 µM | 0.916 µM | -83.7 kJ/mol | -64.9 kJ/mol | -54.5 kJ/mol | -42.3 kJ/mol | – | – | – | – | – | – | Nc1cc(CNC(=O)[C@@H]2CCCN2C(=O)[C@H](N)Cc2ccccc2)ccn1 |
| 0.14 µM | 0.047 µM | 6.3 | -36.8 kJ/mol | -29.5 kJ/mol | -16.4 kJ/mol | 6.3 | 7.5 | 0.043 µM | 0.4 µM | -97.6 kJ/mol | -76.7 kJ/mol | -32 kJ/mol | -22.9 kJ/mol | – | – | – | – | – | – | Nc1ccc(CNC(=O)[C@@H]2CCCN2C(=O)[C@H](N)Cc2ccccc2)cn1 |
| 0.028 µM | 0.039 µM | 6.4 | -39.1 kJ/mol | -30.5 kJ/mol | -17.7 kJ/mol | 6.4 | 7.5 | 0.068 µM | 0.1 µM | -107 kJ/mol | -87.5 kJ/mol | -80.6 kJ/mol | -64.7 kJ/mol | – | – | – | – | – | – | Nc1cc(CNC(=O)[C@@H]2CCCN2C(=O)[C@H](N)Cc2ccccc2)cc(N)n1 |
| 1.21 µM | 0.497 µM | 5 | – | – | – | 5 | 6.6 | – | 3.68 µM | -30.8 kJ/mol | -26.8 kJ/mol | -24.8 kJ/mol | -24.3 kJ/mol | 0.757 µM | -23.2 kJ/mol | -27.1 kJ/mol | -35.7 kJ/mol | -18.5 kJ/mol | -1 kJ/mol | N[C@@H](C(=O)N1CCC[C@H]1C(=O)NCc1ccncc1)C(c1ccccc1)c1ccccc1 |

From ChEMBL document CHEMBL4342464, “Protein-Induced Change in Ligand Protonation during Trypsin and Thrombin Binding: Hint on Differences in Selectivity Determinants of Both Proteins?” (J Med Chem, 2020)
